# *1 amine or outer side, *2 acyl side, *3 side chain or, on linkers, in order; H or OH if unused. Where a SMILES comes first, the peptide text is derived from it. Bridges are numbered along the chain shown (N, C = ends). [ ]: non-standard residue; d: D form. Trp(2-yl) = O=C([C@H](Cc1c([*:3])[nH]c2ccccc12)N[*:1])[*:2]; Leu(4R-OH,5-OH) = C[C@](O)(CO)C[C@H](N)C(=O)O; cisHyp = O=C(O)[C@@H]1C[C@H](O)CN1
# Species on record: Rattus norvegicus
# Assay: Open TG-GATES - Regimen: Single
# Assay type: toxicity, organism-based, Sprague-Dawley
# Design: regimen Single, gender Male, age 6 weeks
# Details: in vivo, ip, 0 mg/kg, route intraperitoneal injection, dose level Control; for APTT / Bas / Eos / Fbg / Hb / Ht / Lym / MCH / MCHC / MCV / Mono / Neu / PT / Plat / RBC / Ret / WBC: tissue Blood; for KIDNEY_L / KIDNEY_R / KIDNEY_TOTAL: tissue Kidney; for LIVER: tissue Liver; for A/G / ALP / ALT / AST / BUN / CRE / Ca / Cl / DBIL / GLC / IP / K / LDH / Na / PL / RALB / TBIL / TC / TG / TP / gamma-GTP: tissue Plasma
smiles,measurement,setting,value
"C[C@@H]1NC(=O)[C@H](C[C@@](C)(O)CO)NC(=O)[C@@H]2Cc3c([nH]c4ccccc34)SC[C@H](NC(=O)[C@@H]([C@H](C)O)NC1=O)C(=O)N1C[C@@H](O)C[C@H]1C(=O)N[C@@H](C)C(=O)N2 [PHALLOIDIN] (cyclo(A[dT]C[cisHyp]A[Trp(2-yl)][Leu(4R-OH,5-OH)]); thioether 3-6)",TERMINAL_BW,3 h,206 g
same,APTT,3 h,23.6 s
same,Bas,3 h,0%
same,Eos,3 h,0.2%
same,Fbg,3 h,283.8 mg/dL
same,Hb,3 h,12.9 g/dL
same,Ht,3 h,40.5%
same,Lym,3 h,73.8%
same,MCH,3 h,20.1 pg
same,MCHC,3 h,32%
same,MCV,3 h,62.8 fL
same,Mono,3 h,2.4%
same,Neu,3 h,22.8%
same,PT,3 h,16.1 s
same,Plat,3 h,112.9 x10_4/uL
same,RBC,3 h,645 x10_4/ul
same,Ret,3 h,7.5%
same,WBC,3 h,74.9 x10_2/uL
same,KIDNEY_L,3 h,0.9 g
same,KIDNEY_R,3 h,0.9 g
same,KIDNEY_TOTAL,3 h,1.8 g
same,LIVER,3 h,8.6 g
same,A/G,3 h,1.2
same,ALP,3 h,1620.6 IU/L
same,ALT,3 h,45.2 IU/L
same,AST,3 h,76.4 IU/L
same,BUN,3 h,11.2 mg/dL
same,CRE,3 h,0.2 mg/dL
same,Ca,3 h,10.4 mg/dL
same,Cl,3 h,108.6 meq/L
same,DBIL,3 h,0 mg/dL
same,GLC,3 h,187.8 mg/dL
same,IP,3 h,8.4 mg/dL
same,K,3 h,3.8 meq/L
same,LDH,3 h,165.2 IU/L
same,Na,3 h,141.8 meq/L
same,PL,3 h,132 mg/dL
same,RALB,3 h,2.8 g/dL
same,TBIL,3 h,0 mg/dL
same,TC,3 h,81 mg/dL
same,TG,3 h,66.2 mg/dL
same,TP,3 h,5.2 g/dL
same,gamma-GTP,3 h,1 IU/L
same,TERMINAL_BW,6 h,208.8 g
same,APTT,6 h,22.5 s
same,Bas,6 h,0%
same,Eos,6 h,0.4%
same,Fbg,6 h,305.6 mg/dL
same,Hb,6 h,12.5 g/dL
same,Ht,6 h,38.7%
same,Lym,6 h,79.6%
same,MCH,6 h,20.4 pg
same,MCHC,6 h,32.2%
same,MCV,6 h,63.4 fL
same,Mono,6 h,1.8%
same,Neu,6 h,17.2%
same,PT,6 h,16 s
same,Plat,6 h,126.1 x10_4/uL
same,RBC,6 h,611.2 x10_4/ul
same,Ret,6 h,7.3%
same,WBC,6 h,94.6 x10_2/uL
same,KIDNEY_L,6 h,0.9 g
same,KIDNEY_R,6 h,0.9 g
same,KIDNEY_TOTAL,6 h,1.8 g
same,LIVER,6 h,9.1 g
same,A/G,6 h,1.2
same,ALP,6 h,1368 IU/L
same,ALT,6 h,38 IU/L
same,AST,6 h,69 IU/L
same,BUN,6 h,15.6 mg/dL
same,CRE,6 h,0.2 mg/dL
same,Ca,6 h,10.5 mg/dL
same,Cl,6 h,106.2 meq/L
same,DBIL,6 h,0 mg/dL
same,GLC,6 h,195.8 mg/dL
same,IP,6 h,7.8 mg/dL
same,K,6 h,4.2 meq/L
same,LDH,6 h,168.6 IU/L
same,Na,6 h,141.2 meq/L
same,PL,6 h,137 mg/dL
same,RALB,6 h,2.8 g/dL
same,TBIL,6 h,0 mg/dL
same,TC,6 h,82 mg/dL
same,TG,6 h,63 mg/dL
same,TP,6 h,5.2 g/dL
same,gamma-GTP,6 h,1.4 IU/L
same,TERMINAL_BW,9 h,208.4 g
same,APTT,9 h,22.5 s
same,Bas,9 h,0%
same,Eos,9 h,0.4%
same,Fbg,9 h,290.4 mg/dL
same,Hb,9 h,12.5 g/dL
same,Ht,9 h,39.2%
same,Lym,9 h,79.4%
same,MCH,9 h,20.4 pg
same,MCHC,9 h,31.9%
same,MCV,9 h,63.8 fL
same,Mono,9 h,1.6%
same,Neu,9 h,18%
same,PT,9 h,15.9 s
same,Plat,9 h,120.7 x10_4/uL
same,RBC,9 h,613.6 x10_4/ul
same,Ret,9 h,7.1%
same,WBC,9 h,83.1 x10_2/uL
same,KIDNEY_L,9 h,0.9 g
same,KIDNEY_R,9 h,1 g
same,KIDNEY_TOTAL,9 h,1.9 g
same,LIVER,9 h,9.2 g
same,A/G,9 h,1.2
same,ALP,9 h,1788.6 IU/L
same,ALT,9 h,45.2 IU/L
same,AST,9 h,75.4 IU/L
same,BUN,9 h,13.4 mg/dL
same,CRE,9 h,0.2 mg/dL
same,Ca,9 h,10.5 mg/dL
same,Cl,9 h,105 meq/L
same,DBIL,9 h,0 mg/dL
same,GLC,9 h,202.8 mg/dL
same,IP,9 h,7.7 mg/dL
same,K,9 h,4.3 meq/L
same,LDH,9 h,145.6 IU/L
same,Na,9 h,140.8 meq/L
same,PL,9 h,134.8 mg/dL
same,RALB,9 h,2.9 g/dL
same,TBIL,9 h,0.004 mg/dL
same,TC,9 h,79 mg/dL
same,TG,9 h,71.2 mg/dL
same,TP,9 h,5.3 g/dL
same,gamma-GTP,9 h,1.4 IU/L
same,TERMINAL_BW,24 h,216 g
same,APTT,24 h,22.7 s
same,Bas,24 h,0%
same,Eos,24 h,0.6%
same,Fbg,24 h,321.6 mg/dL
same,Hb,24 h,12.3 g/dL
same,Ht,24 h,38.4%
same,Lym,24 h,83.8%
same,MCH,24 h,20.3 pg
same,MCHC,24 h,32.1%
same,MCV,24 h,63.4 fL
same,Mono,24 h,1.6%
same,Neu,24 h,13.4%
same,PT,24 h,16 s
same,Plat,24 h,120 x10_4/uL
same,RBC,24 h,606.2 x10_4/ul
same,Ret,24 h,7.7%
same,WBC,24 h,76.3 x10_2/uL
same,KIDNEY_L,24 h,1 g
same,KIDNEY_R,24 h,1 g
same,KIDNEY_TOTAL,24 h,2 g
same,LIVER,24 h,9.4 g
same,A/G,24 h,1.2
same,ALP,24 h,1563.4 IU/L
same,ALT,24 h,40.8 IU/L
same,AST,24 h,69 IU/L
same,BUN,24 h,14 mg/dL
same,CRE,24 h,0.2 mg/dL
same,Ca,24 h,10.5 mg/dL
same,Cl,24 h,105.4 meq/L
same,DBIL,24 h,0.002 mg/dL
same,GLC,24 h,196 mg/dL
same,IP,24 h,8.9 mg/dL
same,K,24 h,3.9 meq/L
same,LDH,24 h,182.4 IU/L
same,Na,24 h,141.6 meq/L
same,PL,24 h,144.2 mg/dL
same,RALB,24 h,2.9 g/dL
same,TBIL,24 h,0.002 mg/dL
same,TC,24 h,85.6 mg/dL
same,TG,24 h,55.4 mg/dL
same,TP,24 h,5.3 g/dL
same,gamma-GTP,24 h,1.8 IU/L

# Source: ChEMBL document CHEMBL3885861, “Open TG-GATES”
